Measured values taken from patent publication US10874104B2, “Pesticidally active pryazole derivatives” (SYNGENTA PARTICIPATIONS AG, priority 2016, dated 2020).
Read-outs that look alike come from different tables or passages of the source.

What was measured:
Assay type in all cases: in vivo
[1] = system: Tetranychus urticae (Two-Spotted Spider Mite); experiment: Tetranychus urticae (two-spotted spider mite), feeding/contact activity, mortality; conditions: 192 h, application rate 200 ppm, mixed population (mobile stages), 8 days after infestation
Procedure: Tetranychus urticae (Two-Spotted Spider Mite): Feeding/Contact Activity
Bean leaf discs on agar in 24-well microtiter plates were sprayed with aqueous test solutions prepared from 10′000 ppm DMSO stock solutions. After drying the leaf discs were infested with a mite population of mixed ages. The samples were assessed for mortality on mixed population (mobile stages) 8 days after infestation.

[2] = system: Spodoptera littoralis (Egyptian Cotton Leaf Worm); experiment: Spodoptera littoralis (Egyptian cotton leaf worm), feeding/contact activity, mortality; conditions: 72 h
Procedure: Spodoptera littoralis (Egyptian Cotton Leaf Worm): Feeding/Contact Activity
Cotton leaf discs were placed onto agar in 24-well microtiter plates and sprayed with aqueous test solutions prepared from 10′000 ppm DMSO stock solutions. After drying the leaf discs were infested with five L1 larvae. The samples were assessed for mortality 3 days after infestation.

[3] = system: Myzus persicae (Green Peach Aphid); experiment: Myzus persicae (green peach aphid), feeding/contact activity, mortality; conditions: 144 h, application rate 200 ppm, aphid population of mixed ages, 6 days after infestation
Procedure: Myzus persicae (Green Peach Aphid): Feeding/Contact Activity
(§1) Sunflower leaf discs were placed onto agar in a 24-well microtiter plate and sprayed with aqueous test solutions prepared from 10′000 ppm DMSO stock solutions. After drying, the leaf discs were infested with an aphid population of mixed ages. The samples were assessed for mortality 6 days after infestation.

[4] = system: Euschistus heros (Neotropical Brown Stink Bug); experiment: Euschistus heros (neotropical brown stink bug), feeding/contact activity, mortality; conditions: 120 h
Procedure: Euschistus heros (Neotropical Brown Stink Bug): Feeding/contact activity
Soybean leaves on agar in 24-well microtiter plates were sprayed with aqueous test solutions prepared from 10′000 ppm DMSO stock solutions. After drying the leaves were infested with N2 nymphs. The samples were assessed for mortality 5 days after infestation.

[5] = system: Plutella xylostella (Diamond Back Moth); experiment: Plutella xylostella (diamond back moth), feeding/contact activity on artificial diet, mortality; conditions: 120 h
Procedure: Plutella xylostella (Diamond Back Moth): Feeding/Contact Activity
24-well microtiter plates with artificial diet were treated with aqueous test solutions prepared from 10′000 ppm DMSO stock solutions by pipetting. After drying, the plates were infested with L2 larvae (10 to 15 per well). The samples were assessed for mortality 5 days after infestation.

[6] = system: Diabrotica balteata (Corn Root Worm); experiment: Diabrotica balteata (corn root worm), sprayed maize sprouts on agar, mortality; conditions: 96 h
Procedure: Diabrotica balteata (Corn Root Worm):
Maize sprouts placed onto an agar layer in 24-well microtiter plates were treated with aqueous test solutions prepared from 10′000 ppm DMSO stock solutions by spraying. After drying, the plates were infested with L2 larvae (6 to 10 per well). The samples were assessed for mortality 4 days after infestation.

[7] = system: Thrips tabaci (Onion Thrips); experiment: Thrips tabaci (onion thrips), feeding/contact activity, mortality; conditions: 144 h
Procedure: Thrips tabaci (Onion Thrips): Feeding/Contact Activity
as §1, with “on” for “onto”, “in” for “in a”, “plates” for “plate”, “drying” for “drying,”, “a thrips” for “an aphid”

[8] = application rate 200 ppm, L1 larvae, 3 days after infestation, read-out: mortality
[9] = application rate 200 ppm, N2 nymphs, 5 days after infestation, read-out: mortality
[10] = application rate 200 ppm, L2 larvae on artificial diet, 5 days after infestation, read-out: mortality
[11] = application rate 200 ppm, L2 larvae, 4 days after infestation, read-out: mortality
[12] = application rate 200 ppm, thrips population of mixed ages, 6 days after infestation, read-out: mortality

Measured: mortality at 200 ppm

Cn1nc(C(F)(F)C(F)(F)F)c(OC(F)F)c1-n1cc(-c2ccc(Cl)c(C(=O)NC3(C#N)CC3)c2)cn1 [Compound 1, 2-chloro-N-(1-cyanocyclopropyl)-5-[1-[4-(difluoromethoxy)-2-methyl-5-(1,1,2,2,2-pentafluoroethyl)pyrazol-3-yl]pyrazol-4-yl]benzamide]
≥ 80%: [1] | [2]; [8] | [3] | [4]; [9] | [5]; [10] | [6]; [11]

Cn1nc(C(F)(F)C(F)(F)F)c(OC(F)F)c1-n1cc(-c2ccc(Cl)c(C(=O)NC3CC3)c2)cn1 [Compound 2, 2-Chloro-N-cyclopropyl-5-[1-[4-(difluoromethoxy)-2-methyl-5-(1,1,2,2,2-pentafluoroethyl)-pyrazol-3-yl]pyrazol-4-yl]benzamide]
≥ 80%: [1] | [2]; [8] | [3] | [4]; [9] | [5]; [10] | [6]; [11]

COc1c(C(F)(F)C(F)(F)F)nn(C)c1-n1cc(-c2ccc(Cl)c(C(=O)NC3CC3)c2)cn1 [Compound 6]
≥ 80%: [7]; [12] | [1] | [2]; [8] | [4]; [9] | [5]; [10] | [6]; [11]

Cn1nc(C(F)(F)C(F)(F)F)c(C2CC2)c1-n1cc(-c2ccc(Cl)c(C(=O)NC3(C#N)CC3)c2)cn1 [Compound 9]
≥ 80%: [7]; [12] | [1] | [2]; [8] | [3] | [4]; [9] | [5]; [10] | [6]; [11]

C=Cc1c(C(F)(F)C(F)(F)F)nn(C)c1-n1cc(-c2ccc(Cl)c(C(=O)NC3(C#N)CC3)c2)cn1 [Compound 15, 2-Chloro-N-(1-cyanocyclopropyl)-5-[1-[2-methyl-5-(1,1,2,2,2-pentafluoroethyl)-4-vinyl-pyrazol-3-yl]pyrazol-4-yl]benzamide]
≥ 80%: [1] | [2]; [8] | [3] | [4]; [9] | [5]; [10] | [6]; [11]

C#Cc1c(C(F)(F)C(F)(F)F)nn(C)c1-n1cc(-c2ccc(Cl)c(C(=O)NC3(C#N)CC3)c2)cn1 [Compound 17]
≥ 80%: [1] | [3] | [4]; [9] | [5]; [10] | [6]; [11]

C#Cc1c(C(F)(F)C(F)(F)F)nn(C)c1-n1cc(-c2ccc(Cl)c(C(=O)NC3CC3)c2)cn1 [Compound 18]
≥ 80%: [2]; [8]

Cn1nc(C(F)(F)C(F)(F)F)c(OC(F)F)c1-n1cc(-c2cnc(Cl)c(C(=O)NC3(C#N)CC3)c2)cn1 [Compound 21]
≥ 80%: [1] | [2]; [8] | [3] | [4]; [9] | [5]; [10] | [6]; [11]

Cn1nc(C(F)(F)C(F)(F)F)c(S(=O)(=O)C2CC2)c1-n1cc(-c2ccc(Cl)c(C(=O)NC3CC3)c2)cn1 [Compound 33]
≥ 80%: [7]; [12] | [1] | [2]; [8] | [4]; [9] | [5]; [10] | [6]; [11]

Cn1nc(C(F)(F)C(F)(F)F)c(S(=O)(=O)C2CC2)c1-n1cc(-c2ccc(Cl)c(C(=O)NC3(C#N)CC3)c2)cn1 [Compound 35]
≥ 80%: [7]; [12] | [1] | [2]; [8] | [4]; [9] | [5]; [10] | [6]; [11]

Cn1nc(C(F)(F)C(F)(F)F)c(OC(F)(F)C(F)F)c1-n1cc(-c2ccc(Cl)c(C(=O)NC3(C#N)CC3)c2)cn1 [Compound 37]
≥ 80%: [7]; [12] | [1] | [2]; [8] | [4]; [9] | [5]; [10] | [6]; [11]

CCOc1c(C(F)(F)C(F)(F)F)nn(C)c1-n1cc(-c2ccc(Cl)c(C(=O)NC3(C#N)CC3)c2)cn1 [Compound 38]
≥ 80%: [1] | [2]; [8] | [4]; [9] | [5]; [10] | [6]; [11]

Cn1nc(C(F)(F)C(F)(F)F)c(OCC(F)F)c1-n1cc(-c2ccc(Cl)c(C(=O)NC3(C#N)CC3)c2)cn1 [Compound 39]
≥ 80%: [1] | [2]; [8] | [4]; [9] | [5]; [10] | [6]; [11]

Cn1nc(C(F)(F)C(F)(F)F)c(OC(F)(F)C(F)(F)C(F)(F)F)c1-n1cc(-c2ccc(Cl)c(C(=O)NC3(C#N)CC3)c2)cn1 [Compound 40]
≥ 80%: [7] | [2] | [4] | [5] | [6]

Cn1nc(C(F)(F)C(F)(F)F)c(OC(F)(F)C(F)C(F)(F)F)c1-n1cc(-c2ccc(Cl)c(C(=O)NC3(C#N)CC3)c2)cn1 (stereo not shown) [Compound 43]
≥ 80%: [7]; [12] | [2]; [8] | [5]; [10] | [6]; [11]

Cn1nc(C(F)(F)C(F)(F)F)c(OCC(F)F)c1-n1cc(-c2ccc(Cl)c(C(=O)NC3CC3)c2)cn1 [Compound 44]
≥ 80%: [1] | [2]; [8] | [5]; [10] | [6]; [11]

Cn1nc(C(F)(F)C(F)(F)F)c(OC(F)(F)C(F)(F)C(F)(F)F)c1-n1cc(-c2ccc(Cl)c(C(=O)NC3CC3)c2)cn1 [Compound 45]
≥ 80%: [7] | [2] | [5] | [6]

Cn1nc(C(F)(F)C(F)(F)F)c(OC(F)(F)C(F)C(F)(F)F)c1-n1cc(-c2ccc(Cl)c(C(=O)NC3CC3)c2)cn1 (stereo not shown) [Compound 46]
≥ 80%: [7]; [12] | [2]; [8] | [5]; [10] | [6]; [11]

Cn1nc(C(F)(F)C(F)(F)F)c(OC(F)F)c1-n1cc(-c2cc(C(=O)NC3CC3)c(Cl)cc2F)cn1 [Compound 47]
≥ 80%: [5]; [10]

Cn1nc(C(F)(F)C(F)(F)F)c(OC(F)(F)C(F)C(F)(F)F)c1-n1cc(-c2ccc(Cl)c(C(=O)NCc3ccccc3)c2)cn1 (stereo not shown) [Compound 57]
≥ 80%: [3]

CCN(C(=O)c1cc(-c2cnn(-c3c(OC(F)F)c(C(F)(F)C(F)(F)F)nn3C)c2)ccc1C#N)C1CC1 [Compound 58]
≥ 80%: [6]; [11]

CN(C(=O)c1cc(-c2cnn(-c3c(OC(F)F)c(C(F)(F)C(F)(F)F)nn3C)c2)ccc1C#N)C1CC1 [Compound 59]
≥ 80%: [6]; [11]

CN(C(=O)c1cc(-c2cnn(-c3c(OC(F)F)c(C(F)(F)C(F)(F)F)nn3C)c2)ccc1C#N)C1(C#N)CC1 [Compound 61]
≥ 80%: [6]; [11]

Cn1nc(C(F)(F)C(F)(F)F)c(OC(F)F)c1-n1cc(-c2ccc(C#N)c(C(=O)NC3CC3)c2)cn1 [Compound 62]
≥ 80%: [6]; [11]

Cn1nc(C(F)(F)C(F)(F)F)c(OC(F)F)c1-n1cc(-c2ccc(Cl)c(C(=O)NC3(C#N)CC3)c2)nn1 [Compound 64, 2-Chloro-N-(1-cyanocyclopropyl)-5-[1-[4-(difluoromethoxy)-2-methyl-5-(1,1,2,2,2-pentafluoroethyl)pyrazol-3-yl]triazol-4-yl]benzamide]
≥ 80%: [6]; [11]

Cn1nc(C(F)(F)C(F)(F)F)c(OC(F)F)c1-n1cc(-c2ccc(Cl)c(C(=O)NC3CC3)c2)nn1 [Compound 65]
≥ 80%: [6]; [11]
